Laboratory results: patent publication US10323007B1, “N2N N4-disubstituted quinazoline-2,4-diamines and uses thereof” (University of South Florida, priority 2016, dated 2019)
Converted amounts (≈) assume the structure as drawn. Read-outs that look alike come from different tables or passages of the source.

What was measured:
[1] = tested on: A. baumannii 1403 biofilm; assay: biofilm eradication determination assay, strain 1403; assay type: cell-based, Acinetobacter baumannii; conditions: 90% biofilm eradication, Table 8
Protocol: (§1) These assays were performed as described by us previously,^26,24 as follows. Each of the A. baumannii strains were grown overnight in Mueller Hinton Broth (MHB). The next day these were used to seed fresh MHB to an OD600 of 0.5, with 150 μL then added to the wells of a 96 well plate and grown for 24 hours at 37° C. After 24 hours, the planktonic bacteria were carefully removed and fresh MHB was added with increasing concentrations of lead quinazolines. After incubation at 37° C. for 24 hours, planktonic cells were removed and biofilms were washed three times with phosphate buffered saline (PBS). Biofilms were then resuspended in PBS and plated for cell viability on tryptic soy agar. Biofilm recovery was assessed compared to no drug controls, and determined as percent eradication. This was used to determine MBEC90 values (Minimal Biofilm Eradication Concentration), where the viability of cells within the biofilm was reduced by 90%.

A. baumannii 1403 [2] = assay: MIC assay, strain 1403; assay type: cell-based, Acinetobacter baumannii; conditions: strain 1403; for MIC: Acinetobacter baumannii
Protocol: (§2) MIC and MBC assays were performed in this study as documented by us previously.^17,23,24,25 The A. baumannii strains used are detailed in Table 7.

[3] = tested on: A. baumannii 1652 biofilm; assay: biofilm eradication determination assay, strain 1652; assay type: cell-based, Acinetobacter baumannii; conditions: 90% biofilm eradication, Table 8
Protocol: as §1

[4] = tested on: A. baumannii 1649 biofilm; assay: biofilm eradication determination assay, strain 1649; assay type: cell-based, Acinetobacter baumannii; conditions: 90% biofilm eradication, Table 8
Protocol: as §1

A. baumannii 1403 [5] = assay: minimal bactericidal concentration (MBC) assay, strain 1403; assay type: cell-based; conditions: Acinetobacter baumannii, Table 8, read-out: MBC90 1403
Description: (§3) Lead quinazolines 4, 5, 26, 29, 27, and 30 were selected to be further evaluated for antimicrobial effects. The first assay utilized was a minimal bactericidal concentration (MBC) assay, to assess whether leads compounds were bacteriostatic or bactericidal. The six lead agents were screened to identify their MBC90 towards each of the six A. baumannii isolates used in the SAR studies (Table 8), however for simplicity only the representative data for isolate 1646 is detailed below (Table 6). […] Further to this, we were able to obtain complete eradication of bacterial growth for these two compounds at 1 μM for 24 and 5 μM for 25.
as §2

A. baumannii 1651 = assay: MIC assay, strain 1651; assay type: cell-based, Acinetobacter baumannii; conditions: strain 1651
Protocol: as §2

A. baumannii 1650 [6] = assay: MIC assay, strain 1650; assay type: cell-based, Acinetobacter baumannii; conditions: strain 1650
Protocol: as §2

A. baumannii 1652 = assay: minimal bactericidal concentration (MBC) assay, strain 1652; assay type: cell-based; conditions: Acinetobacter baumannii, Table 8, read-out: MBC90 1652
Description: as §3, §2

A. baumannii 1646 [7] = assay: minimal bactericidal concentration (MBC) assay, strain 1646; assay type: cell-based, Acinetobacter baumannii
In short: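 MBC90 determined against A. baumannii clinical isolates to distinguish bactericidal from bacteriostatic activity, following the group's previously published MIC/MBC protocol.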

A. baumannii 1649 = assay: MIC assay, strain 1649; assay type: cell-based, Acinetobacter baumannii; conditions: strain 1649
Protocol: as §2

A. baumannii strain 1403 = assay type: cell-based, Acinetobacter baumannii; conditions: serial passage, 8 days, start 0.5× MIC
Protocol: An important attribute of novel antibiotics is the ability to fend off the development of resistance towards their effects. To assess this capacity, A. baumannii strains were incubated overnight with 0.5× MIC of each of the frontrunners. The next day cells were washed and used to inoculate fresh media that contained a two-fold increase in drug. This was repeated for a total of 8 days, alongside sulfamethoxazole (SMX) and trimethoprim (TMP) controls, both of which target the same pathway as our lead agents (FIG. 2).
In order to test potential resistance towards the quinazolines, a serial passage assay was performed alongside control compounds (Sulfamethoxazole and Trimethoprim), as described by us previously.^24 A. baumannii strain 1403 was grown overnight in LB media at 37° C. The next day cultures were diluted 1:100 in fresh media and seeded into a 96-well plate. Lead quinazolines or control agents were added to respective wells at half MIC concentrations. […] These were then grown overnight, and the procedure repeated for a total of eight days.

[8] = tested on: A. baumannii 1646 biofilm; assay: biofilm eradication determination assay, strain 1646; assay type: cell-based, Acinetobacter baumannii
Protocol: as §1

A. baumannii 1646 [9] = assay: murine model of lethal peritonitis; assay type: in vivo, mice; conditions: 2 mg kg^-1 intraperitoneal, one hour post challenge, 5 days
Protocol: As a final assessment, we used a murine model of lethal A. baumannii infection to determine the efficacy of quinazolines in vivo. This was performed using frontrunner 5, which had the most promising properties from all of our biological testing. Accordingly, mice were inoculated with a lethal dose of A. baumannii via intraperitoneal injection on the right side of the abdomen. One hour post challenge, mice were treated with an intraperitoneal injection of 2 mg kg^−1 of frontrunner 5 on the left side of the abdomen. As a control, we also performed similar testing using 30 mg kg^−1 of tigecycline, which we already know our test strain to be susceptible to in vitro.
Characteristics of pre-moribund state include: hunched posture, rapid, shallow and/or labored breathing, ruffled fur, lethargy, failure to respond to stimuli, soiled anogenital area, paralysis, paresis, head tilt, circling, vocalizations, non-purposeful movements, and/or were unable to eat or drink. Those mice reaching this state prior to the completion of the 5-day infection period were euthanized. The number of mice surviving between control and treatment groups was compared and analyzed for statistical significance using a log-rank (Mantel-Cox) test.

[10] = tested on: A. baumannii 1650 biofilm; assay: biofilm eradication determination assay, strain 1650; assay type: cell-based, Acinetobacter baumannii; conditions: 90% biofilm eradication, Table 8
Protocol: as §1

A. baumannii 1650 [11] = assay: minimal bactericidal concentration (MBC) assay, strain 1650; assay type: cell-based; conditions: Acinetobacter baumannii, Table 8, read-out: MBC90 1650
Description: as §3, §2

A. baumannii 1646 [12] = assay: MIC assay, strain 1646; assay type: cell-based, Acinetobacter baumannii
Protocol: as §2

## CNc1nc(NCc2ccccc2)nc2ccc(C)cc12 [Compound 5, N^2-Benzyl-N^4,6-dimethylquinazoline-2,4-diamine]
[1]
  MBEC90 1403: 13 µM
A. baumannii 1403 [2]; Tables 1, 3, 4, 5 and footnotes, read-out: 1403 MIC
  MIC: 10 µM (≈ 2.78 µg/mL)
A. baumannii 1403 [2]; lead quinazolines, Table 8, read-out: MIC 1403
  MIC: 10 µM (≈ 2.78 µg/mL)
A. baumannii 1403 [2]; Table 2
  1403 MIC: 10 μm
[3]
  MBEC90 1652: 68 µM
[4]
  MBEC90 1649: 34 µM
A. baumannii 1403 [5]
  MBC: 30 µM (≈ 8.35 µg/mL)
A. baumannii 1651; Acinetobacter baumannii, Table 2, read-out: 1651 MIC
  MIC: 10 µM (≈ 2.78 µg/mL)
A. baumannii 1651; Acinetobacter baumannii, lead quinazolines, Table 8, read-out: MIC 1651
  MIC: 1 µM (≈ 0.278 µg/mL)
A. baumannii 1651; Tables 1, 3, 4, 5 and footnotes, read-out: 1651 MIC
  MIC: 10 µM (≈ 2.78 µg/mL)
A. baumannii 1650 [6]; Acinetobacter baumannii, Table 2, read-out: 1650 MIC
  MIC: 50 µM (≈ 13.9 µg/mL)
A. baumannii 1650 [6]; Acinetobacter baumannii, lead quinazolines, Table 8, read-out: MIC 1650
  MIC: 35 µM (≈ 9.74 µg/mL)
A. baumannii 1650 [6]; Tables 1, 3, 4, 5 and footnotes, read-out: 1650 MIC
  MIC: 50 µM (≈ 13.9 µg/mL)
A. baumannii 1652
  MBC: 12 µM (≈ 3.34 µg/mL)
A. baumannii 1646 [7]; Acinetobacter baumannii, 1646, strain 1646, Table 8 and text, read-out: MBC90 1646
  MBC: 0.77 µM (≈ 0.214 µg/mL)
A. baumannii 1646 [7]; Acinetobacter baumannii, Table 6, representative data for isolate 1646, read-out: MBC90
  MBC: 0.8 µM (≈ 0.223 µg/mL)
A. baumannii 1649; Acinetobacter baumannii, Table 2, read-out: 1649 MIC
  MIC: 25 µM (≈ 6.96 µg/mL)
A. baumannii 1649; Acinetobacter baumannii, lead quinazolines, Table 8, read-out: MIC 1649
  MIC: 21 µM (≈ 5.85 µg/mL)
A. baumannii 1649; Tables 1, 3, 4, 5 and footnotes, read-out: 1649 MIC
  MIC: 25 µM (≈ 6.96 µg/mL)
A. baumannii strain 1403
  increase in MIC over the 8-day test period: 4 fold
[8]; Table 6, representative data for isolate 1646
  MBEC90: 2.8 µM
[8]; at 10 μM, strain 1646
  reduction in biofilm viability: 3 log
[8]; strain 1646, 90% biofilm eradication, Table 8 and text
  MBEC90 1646: 2.8 µM
A. baumannii 1646 [9]
  survival rate of infected animals: 83%
[10]
  MBEC90 1650: 21 µM
A. baumannii 1650 [11]
  MBC: 27 µM (≈ 7.52 µg/mL)
A. baumannii 1646 [12]; Acinetobacter baumannii, Table 6, representative data for isolate 1646, read-out: MIC
  MIC: 1 µM (≈ 0.278 µg/mL)
A. baumannii 1646 [12]; Acinetobacter baumannii, strain 1646, Table 2, read-out: 1646 MIC
  MIC: 2 µM (≈ 0.557 µg/mL)
A. baumannii 1646 [12]; Acinetobacter baumannii, strain 1646, lead quinazolines, Table 8, read-out: MIC 1646
  MIC: 1 µM (≈ 0.278 µg/mL)
A. baumannii 1646 [12]; strain 1646, Tables 1, 3, 4, 5 and footnotes, read-out: 1646 MIC
  MIC: 2 µM (≈ 0.557 µg/mL)
